# Measurements taken from patent US6365769B1, “Perfluoroalkyl halides and derivatives” (3M Innovative Properties Company, priority 1991, dated 2002).
# Assays:
# Assay type in all cases: physicochemical
# [1] = Surface tension of the aqueous solution, Du Nouy tensiometer; conditions: for SURFACE TENSION (dynes/cm) 100 ppm: 100 ppm in water; for SURFACE TENSION (dynes/cm) 500 ppm: 500 ppm in water
# Method: (§1) The materials of the invention were diluted in water to 0.05% (500 ppm) and/or 0.01% (100 ppm), and the surface tension of the aqueous solution was measured using a Du Nouy tensiometer. Foam height was measured as volume in a graduated cylinder. Half-life time (t ½) is the time for half the liquid present in the foam to drain from the foam. The foam was generated by a wire wisk in a Hobart mixer. Thus, 200 mL of surfactant solution to be tested is placed in a bowl of Hobart Model N-50 mixer equipped with a wire wisk stirrer and stirred for 3 minutes at medium speed (setting 2=300 rpm). The foam produced was immediately transferred to a 4000 mL graduated cylinder for measuring foam height and half-life time.
# [2] = Foam half-life time (drainage of half the liquid); conditions: 500 ppm in water
# Method: as §1
# [3] = Foam height, foam generated in Hobart mixer; conditions: 500 ppm in water; 200 mL solution stirred 3 minutes
# Method: as §1
Molecule,SURFACE TENSION (dynes/cm) 100 ppm [1] [dynes/cm],SURFACE TENSION (dynes/cm) 500 ppm [1] [dynes/cm],other results
"O=C(CC(C(=O)OCCC(F)(F)C(F)(F)C(F)(F)C(F)(F)F)S(=O)(=O)[O-])OCCC(F)(F)C(F)(F)C(F)(F)C(F)(F)F.[Na+] (centres unmarked) [C14, reference compound]",30.5,21.7,
"N.O=S(=O)(O)OCCC(F)(F)C(F)(F)C(F)(F)C(F)(F)C(F)(F)C(F)(F)C(F)(F)C(F)(F)F [Example 43, C8F17CH2CH2OSO3NH4]",,,"SURFACE TENSION (dyne/cm) 500 ppm ([1]; 500 ppm as printed (second surface tension column of Tables 12, 14)): 22.8 dyne/cm; SURFACE TENSION (dyne/cm) 500 ppm ([1]; 500 ppm in water (first surface tension column of Tables 12, 14)): 19.5 dyne/cm; HALF-LIFE TIME (SEC) / t ½ [2]: <30 s; FOAM HEIGHT (VOLUME) [3]: 400"
"O=C(CC(C(=O)OCCC(F)(F)C(F)(F)C(F)(F)C(F)(F)F)S(=O)(=O)[O-])OCCC(F)(F)C(F)(F)C(F)(F)C(F)(F)F.[Na+] (centres unmarked) [Example 45, C4F9CH2CH2OC(O)CH2CH(SO3Na)C(O)OCH2CH2C4F9]",24.2,17.7,
"CC(C)(CNC(=O)CCSCCC(F)(F)C(F)(F)C(F)(F)C(F)(F)C(F)(F)C(F)(F)C(F)(F)C(F)(F)F)CS(=O)(=O)[O-].[K+] [Example 47, C8F17CH2CH2SCH2CH2C(O)NHCH2C(CH3)2CH2SO3K]",24.0,19.0,
"CC(C)(CNC(=O)CCNCCNCCC(=O)OCCC(F)(F)C(F)(F)C(F)(F)C(F)(F)C(F)(F)C(F)(F)C(F)(F)C(F)(F)F)CS(=O)(=O)[O-].[K+] [Example 55, C8F17CH2CH2OC(O)CH2CH2NHCH2CH2NHCH2CH2C(O)NHCH2C(CH3)2CH2SO3K]",26.2,20.1,
"CCS(=O)(=O)[O-].CC[N+](C)(C)CCOC(=O)CCNCCNCCC(=O)OCCC(F)(F)C(F)(F)C(F)(F)C(F)(F)C(F)(F)C(F)(F)C(F)(F)C(F)(F)F [Example 61, [C8F17CH2CH2OC(O)CH2CH2NHCH2CH2NHCH2CH2C(O)OCH2CH2N^+(CH3)2CH2CH3] [CH3CH2SO^−3]]",21.3,19.9,
CCCCCCCCCC(O)C/[N+](C)=C/CCCS(=O)(=O)[O-] (centres unmarked) [Example 71],,17.5,
C8F17C2H4O(C2H4O)nH [Example 69],,21.7,
C8F17CH2CH2S(CH2CH2O)12(CH2CH(CH3)O)3H [Example 70],,23.1,
